Patent publication US10131664B2 (Celgene Quanticel Research, Inc., priority 2013, dated 2018)
Where a name gives a salt, the structure may show the parent alone.

Key:
THP-1 (AML) cells = assay: LSD1 CD11b cellular assay (flow cytometry); assay type: cell-based; conditions: Homo sapiens, 96 h; CD11b expression in THP-1 (AML) cells, flow cytometry, 4 days incubation; read-out: Cellular IC50
Method in brief: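 THP-1 AML cells treated with serially diluted compound (0.2% DMSO final) for 4 days at 37 °C, 5% CO2. CD11b expression measured by flow cytometry with DAPI staining; IC50 derived from percent CD11b-positive cells versus inhibitor concentration.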

full-length human LSD1 = full-length human LSD1 (Homo sapiens (Human), UniProt O60341); assay: In vitro enzyme inhibition assay LSD-1 (TR-FRET); assay type: biochemical; conditions: TR-FRET, 0.1 nM LSD1, 50 nM H3K4me1-biotin peptide, 2 μM FAD, pH7.3; read-out: LSD1 IC50
Method: This assay determines the ability of a test compound to inhibit LSD1 demethylase activity.
The enzymatic assay of LSD1 activity is based on Time Resolved-Fluorescence Resonance Energy Transfer (TR-FRET) detection.
The ability of the compounds disclosed herein to inhibit LSD1 activity was quantified and the respective IC50 value was determined. Table 5 provides the IC50 values of various substituted heterocyclic compounds disclosed herein.

SMILES	IC50 (THP-1 (AML) cells) [µM]	IC50 (full-length human LSD1) [µM]
COc1nc(N2CCC(N)CC2)nc(-c2ccc(C#N)c(F)c2)c1-c1cnc2c(c1)nnn2C [Example 157, 4-[2-(4-aminopiperidin-1-yl)-6-methoxy-5-{3-methyl-3H-[1,2,3]triazolo[4,5-b]pyridin-6-yl}pyrimidin-4-yl]-2-fluorobenzonitrile]	< 0.1	< 0.1
N#Cc1ccc(-c2nc(N3CCC(N)CC3)ncc2-c2cnn(CC(F)(F)F)c2)cc1F [Example 80, 4-[2-(4-aminopiperidin-1-yl)-5-[1-(2,2,2-trifluoroethyl)pyrazol-4-yl]pyrimidin-4-yl]-2-fluorobenzonitrile]	< 0.1	< 0.1
COc1ccc(-c2nc3ccn(C[C@H]4CCNC4)c3cc2-c2ccc(C#N)c(F)c2)cc1 [Example 54]	< 0.1	< 0.1
N#Cc1ccc(-c2nc(N3CCC(N)C(O)C3)ncc2-c2cnn(CC(F)(F)F)c2)cc1F (stereo not shown) [Example 103, 4-[2-(4-amino-3-hydroxypiperidin-1-yl)-5-[1-(2,2,2-trifluoroethyl)pyrazol-4-yl]pyrimidin-4-yl]-2-fluorobenzonitrile]	0.1 to 1	< 0.1
N#Cc1ccc(-c2nc(N3CCC(N)CC3)ncc2-c2ccc3c(c2)ncn3C(F)F)cc1 [Example 79, 4-[2-(4-aminopiperidin-1-yl)-5-[1-(difluoromethyl)benzimidazol-5-yl]pyrimidin-4-yl]benzonitrile]	< 0.1	< 0.1
CNc1nc(N2CCC(N)CC2)nc(-c2ccc(C#N)cc2)c1-c1ccc2c(cnn2C)c1 [Example 164, 4-[2-(4-aminopiperidin-1-yl)-5-(1-methyl-1H-indazol-5-yl)-6-(methylamino)pyrimidin-4-yl]benzonitrile]	< 0.1	< 0.1
COc1ccc(-c2nc3ccn(C[C@@H]4CCNC4)c3cc2-c2ccc(C#N)cc2)cc1 [Example 49, 4-{1-[((3R)pyrrolidin-3-yl)methyl]-5-(4-methoxyphenyl)pyrrolo[3,2-b]pyridin-6-yl}benzenecarbonitrile, HCl salt]	< 0.1	< 0.1
Cc1ccc(-c2nc3ccn(CCCN)c3cc2-c2ccc(C#N)cc2)cc1 [Example 12]	0.1 to 1	< 0.1
Cc1ccc(-c2nc3cnn(C[C@H]4[C@@H]5CNC[C@@H]54)c3cc2-c2ccc(C#N)cc2)cc1 [Example 15, 4-[1-[[(1S,5R)-3-azabicyclo[3.1.0]hexan-6-yl]methyl]-5-(4-methylphenyl)pyrazolo[4,3-b]pyridin-6-yl]benzonitrile]	< 0.1	< 0.1
CNc1nc(N2CCC(N(C)C)CC2)nc(-c2ccc(C#N)cc2)c1-c1ccc2nn(C)cc2c1 [Example 173, 4-{2-[4-(dimethylamino)piperidin-1-yl]-5-(2-methyl-2H-indazol-5-yl)-6-(methylamino)pyrimidin-4-yl}benzonitrile]	< 0.1	< 0.1
CNc1nc(N2CCC(N)CC2)nc(-c2ccc(C#N)cc2)c1-c1cnn(CC(F)(F)F)c1 [Example 174, 4-[2-(4-aminopiperidin-1-yl)-6-(methylamino)-5-[1-(2,2,2-trifluoroethyl)-1H-pyrazol-4-yl]pyrimidin-4-yl]-benzonitrile]	< 0.1	< 0.1
Cn1cnc2cc(-c3cnc(N4CCC5CNCC5CC4)nc3-c3ccc(C#N)cc3)c(F)c(F)c21 (stereo not shown) [Example 130]	< 0.1	< 0.1
Cn1cc2cc(-c3cnc(N4CCCC(N)C4)nc3-c3ccc(C#N)c(F)c3)ccc2n1 (stereo not shown) [Example 108, 4-[2-(3-aminopiperidin-1-yl)-5-(2-methylindazol-5-yl)pyrimidin-4-yl]-2-fluorobenzonitrile]	< 0.1	< 0.1
Cn1cc2cc(-c3cnc(N4CCC(N)C(F)C4)nc3-c3ccc(C#N)c(F)c3)ccc2n1 (stereo not shown) [Example 112, 4-[2-(4-amino-3-fluoropiperidin-1-yl)-5-(2-methylindazol-5-yl)pyrimidin-4-yl]-2-fluorobenzonitrile]	< 0.1	< 0.1
Cn1ccc2nc(-c3cnc(N4CCC(N)CC4)nc3-c3ccc(C#N)cc3)ccc21 [Example 77, 4-[2-(4-aminopiperidin-1-yl)-5-(1-methylpyrrolo[3,2-b]pyridin-5-yl)pyrimidin-4-yl]benzonitrile]	0.1 to 1	< 0.1
Cn1cnc2cc(-c3cnc(N4CCC(N)CC4)nc3-c3ccc(C#N)cc3)ccc21 [Example 122, 4-[2-(4-aminopiperidin-1-yl)-5-(1-methylbenzimidazol-5-yl)pyrimidin-4-yl]benzonitrile]	< 0.1	< 0.1

SMILES	IC50 (THP-1 (AML) cells) [µM]	IC50 (full-length human LSD1) [µM]
Cc1ccc(-c2cc(NCC3CCNC3)nn2-c2ccc(C#N)cc2)cc1 (stereo not shown) [Example 43, 4-[5-(4-methylphenyl)-3-(pyrrolidin-3-ylmethylamino)pyrazol-1-yl]benzonitrile]	< 0.1	< 0.1
Cn1cc2cc(-c3cnc(N4CCC(N)C(O)C4)nc3-c3ccc(C#N)c(F)c3)ccc2n1 (stereo not shown) [Example 107, 4-[2-(4-amino-3-hydroxypiperidin-1-yl)-5-(2-methylindazol-5-yl)pyrimidin-4-yl]-2-fluorobenzonitrile]	< 0.1	< 0.1
COc1nc(N2CCCNCC2)nc(-c2ccc(C#N)c(F)c2)c1-c1ccc2nn(C)cc2c1 [Example 148, 4-[2-(1,4-diazepan-1-yl)-6-methoxy-5-(2-methyl-2H-indazol-5-yl)pyrimidin-4-yl]-2-fluorobenzonitrile]	< 0.1	< 0.1
N#Cc1ccc(-c2cc3c(ccn3C[C@@H]3CCNC3)nc2N2CCOCC2)cc1 [Example 6, 4-[5-morpholin-4-yl-1-[[(3R)-pyrrolidin-3-yl]methyl]pyrrolo[3,2-b]pyridin-6-yl]benzonitrile]	1 to 10	0.1 to 1
CNc1ncc(-c2cnc(N3CCC(N)CC3)nc2-c2ccc(C#N)c(F)c2)cn1 [Example 140, 4-[2-(4-aminopiperidin-1-yl)-5-[2-(methylamino)pyrimidin-5-yl]pyrimidin-4-yl]-2-fluorobenzonitrile]	0.1 to 1	< 0.1
Cn1ncc2cc(-c3cnc(N4CCC(N)C(F)C4)nc3-c3ccc(C#N)c(F)c3)ccc21 (stereo not shown) [Example 111, 4-[2-(4-amino-3-fluoropiperidin-1-yl)-5-(1-methylindazol-5-yl)pyrimidin-4-yl]-2-fluorobenzonitrile]	< 0.1	< 0.1
N#Cc1ccc(-c2nc(N3CCC(N)CC3)ncc2-c2ccc(OCC3CC3)nc2)cc1 [Example 124, 4-[2-(4-aminopiperidin-1-yl)-5-[6-(cyclopropylmethoxy)pyridin-3-yl]pyrimidin-4-yl]benzonitrile]	< 0.1	< 0.1
Cn1nccc1C#Cc1cnc(N2CCC(N)CC2)nc1-c1ccc(C#N)c(F)c1 [Example 106, 4-[2-(4-aminopiperidin-1-yl)-5-[2-(2-methylpyrazol-3-yl)ethynyl]pyrimidin-4-yl]-2-fluorobenzonitrile]	0.1 to 1	< 0.1
Cn1ncc2cc(-c3cnc(N4CCC(N)CC4)nc3-c3ccc(C#N)c(F)c3)cnc21 [Example 145, 4-[2-(4-aminopiperidin-1-yl)-5-(1-methylpyrazolo[3,4-b]pyridin-5-yl)pyrimidin-4-yl]-2-fluorobenzonitrile]	< 0.1	< 0.1
Cn1ncc2cc(-c3cnc(N4CCC(N)CC4)nc3-c3ccc(C#N)cc3)ccc21 [Example 116, 4-[2-(4-aminopiperidin-1-yl)-5-(1-methylindazol-5-yl)pyrimidin-4-yl]benzonitrile]	< 0.1	< 0.1
COc1nc(N2CCC(N)CC2)nc(-c2ccc(C#N)cc2)c1-c1ccc(N(C)C)nc1 [Example 155, 4-[2-(4-aminopiperidin-1-yl)-5-[6-(dimethylamino)pyridin-3-yl]-6-methoxypyrimidin-4-yl]benzonitrile]	< 0.1	< 0.1
N#Cc1ccc(-c2nc(N3CCC4NCCC4C3)ncc2-c2cnn(CC(F)(F)F)c2)cc1 (stereo not shown) [Example 63, 4-[2-{1,2,3,3a,4,6,7,7a-octahydropyrrolo[3,2-c]pyridin-5-yl)-5-[1-(2,2,2-trifluoroethyl)pyrazol-4-yl]pyrimidin-4-yl]benzonitrile]	0.1 to 1	< 0.1
COc1ccc(-c2nc3ccn(C[C@H]4CCNC4)c3cc2-c2ccc(C#N)cc2)cc1F [Example 51, 4-{1-[((3S)pyrrolidin-3-y])methyl]-5-(3-fluoro-4-methoxyphenyl)pyrrolo[3,2-b]pyridin-6-yl}benzenecarbonitrile, HCl salt]	< 0.1	< 0.1
N#Cc1ccc(-c2cc3c(ccn3C[C@H]3CNCCO3)nc2-c2ccc(F)cc2)cc1 [Example 11, 4-[5-(4-fluorophenyl)-1-[[(2R)-morpholin-2-yl]methyl]pyrrolo[3,2-b]pyridin-6-yl]benzonitrile]	1 to 10	< 0.1
N#Cc1ccc(-c2nc(NC[C@H]3CCNC3)ncc2C#CC2CC2)cc1 [Example 26, 4-[5-(2-cyclopropylethynyl)-2-{[(3S)-pyrrolidin-3-ylmethyl]amino}pyrimidin-4-yl]benzonitrile]	0.1 to 1	< 0.1
N#Cc1ccc(-c2nc(N3CCC(N)CC3)ncc2C#CC2(O)CCOCC2)cc1F [Example 97, 4-[2-(4-aminopiperidin-1-yl)-5-[2-(4-hydroxyoxan-4-yl)ethynyl]pyrimidin-4-yl]-2-fluorobenzonitrile]	0.1 to 1	< 0.1
